Assay results as given in paper PMC11868595, “Safety, pharmacokinetics and efficacy of HA121-28 in patients with advanced solid tumors and RET fusion-positive non-small-cell lung cancer: a multicenter, open-label, single-arm phase 1/2 trial” (Signal Transduction and Targeted Therapy, 2025).

Tested on: patients with advanced solid tumors
Assay: Phase 1 trial: adverse events (CTCAE), DLT and MTD
Format: in vivo, human
Method: The phase 1 trial was a two-part, multicenter, open-label, nonrandomized study to evaluate the safety and preliminary efficacy of HA121-28.
Safety, tolerability, and PK of HA121-28 was assessed in dose-escalation part. The single-patient accelerated titration was carried out at 25 mg and 50 mg; then, the dose escalation proceeded according to a “3 + 3” design in dose range of 100 to 800 mg. Escalation to a higher dose level was considered by the satisfactory review of safety results from the previous lower dose during the first cycle.
The dose-expansion part aims to further access the safety and efficacy of HA121-28 at the selected doses based on data from the dose-escalation part. The RP2D was determined by investigators in view of a thorough review of safety, PK, and efficacy results.
In phase 1 trial, during the dose-escalation part, patients first administered HA121-28 in a single ascending dose under the fasted state, then followed up for seven days. Then, patients received ascending doses of HA121-28 (q.d.) on a 21-day on and 7-day off treatment scheme for a 28-day cycle. For patients deemed beneficial from the treatment by investigators, treatment could remain until disease progression, or they discontinued from the study. In the dose-expansion part of phase 1, as well as phase 2, patients received HA121-28 (q.d.) at the selected doses on a 21-day on and 7-day off treatment scheme until disease progression, or they discontinued from the study.
Treatment-emergent adverse events (TEAEs) were documented during the entire study period. The predefined adverse event of special interest (AESI) was ≥ grade 3 prolonged QT interval. Tumor imaging was performed using contrast-enhanced computed tomography or magnetic resonance imaging at screening, Day 28 of the first cycle, then approximately every eight weeks till the end of the study for phase 1; in phase 2, imaging was scheduled at screening, and every eight weeks during the first 40 weeks, followed by every 12 weeks for the rest of the study period. RECIST 1.1 was used by the independent review committee or investigators for assessment of tumor response. After the original assessment, a repeated assessment was required around four weeks later to confirm a complete or partial response.
The primary endpoints of phase 1 were to investigate the MTD, dose-limiting toxicities, and the incidence and severity of TEAEs. Each TEAE was graded according to the Common Terminology Criteria for Adverse Events (CTCAE, version 5.0) and coded by Medical Dictionary for Regulatory Activities (MedDRA, version 21.0). The secondary endpoints included calculating PK parameters, assessing the ORR and DCR at the recommended dose by investigators as per RECIST 1.1. The exploratory endpoint was PFS.
If grade 2 or higher toxicity related to the study drug occurs in Groups 1 and 2 (as determined by the investigator), dose escalation will proceed using a 3+3 design starting from that dose level. If no DLT is observed at the 800 mg/d dose level after dose escalation, a meeting of investigators will be convened to decide whether to proceed with further dose escalation based on the available PK data, safety, and tolerability information.
5. Definition of DLT and MTD
The following events related to the study drug (including those that are definitely related, highly likely to be related, and possibly related):
(1) Grade 4 hematologic toxicity or grade 3 neutropenia accompanied by a fever of 38.5℃ or higher, or grade 3 thrombocytopenia accompanied by severe bleeding.
(2) Patients who discontinued the medication for more than 7 days due to unresolved toxicity reactions or who discontinued the medication more than twice due to toxicity […]
(3) In the context of supportive treatment, diarrhea of grade 2 lasting more than 7 days, or grade 3 diarrhea lasting more than 3 days.

COc1cc2c(Nc3ccc(Br)cc3F)ncnc2cc1OCCCCN(C)C.Cl.Cl [HA121-28, N-(4-bromo-2-fluorophenyl)-7-(4-(dimethylamino)butoxy)-6-methoxy quinazolin-4-amine dihydrochloride]
1 (1.3) No. (%): Serious TEAE: Acute cholecystitis (Phase 1, 450 mg (N=79))
68.8%: incidence of ≥ grade-3 TEAEs (600 mg/day)
0 No. (%): Serious TEAE: ALT increased (Phase 1, 300 mg (N=4)) | Serious TEAE: AST increased (Phase 1, 300 mg (N=4)) | Serious TEAE: Abdominal Pain (Phase 1, 300 mg (N=4)) | Serious TEAE: Abdominal distension (Phase 1, 300 mg (N=4)) | Serious TEAE: Acute cholecystitis (Phase 1, 300 mg (N=4)) | Serious TEAE: Acute pancreatitis (Phase 1, 300 mg (N=4)) | Serious TEAE: Anal abscess (Phase 1, 300 mg (N=4)) | Serious TEAE: Arrhythmia (Phase 1, 300 mg (N=4)) | Serious TEAE: Blood bilirubin increased (Phase 1, 300 mg (N=4)) | Serious TEAE: Blood creatinine increased (Phase 1, 300 mg (N=4)) | Serious TEAE: COVID-19 (Phase 1, 300 mg (N=4)) | Serious TEAE: Cardiac tamponade (Phase 1, 300 mg (N=4)) | Serious TEAE: Coronary artery atherosclerosis (Phase 1, 300 mg (N=4)) | Serious TEAE: Death (Phase 1, 300 mg (N=4)) | Serious TEAE: Diarrhea (Phase 1, 300 mg (N=4)) | Serious TEAE: Drug eruption (Phase 1, 300 mg (N=4)) | Serious TEAE: Dyspnea (Phase 1, 300 mg (N=4)) | Serious TEAE: Embolism (Phase 1, 300 mg (N=4)) | Serious TEAE: Erythema multiforme (Phase 1, 300 mg (N=4)) | Serious TEAE: Headache (Phase 1, 300 mg (N=4)) | Serious TEAE: Hemoptysis (Phase 1, 300 mg (N=4)) | Serious TEAE: Hydronephrosis (Phase 1, 300 mg (N=4)) | Serious TEAE: Hypertension (Phase 1, 300 mg (N=4)) | Serious TEAE: Hypoalbuminemia (Phase 1, 300 mg (N=4)) | Serious TEAE: Intestinal obstruction (Phase 1, 300 mg (N=4)) | Serious TEAE: Intra-abdominal fluid collection (Phase 1, 300 mg (N=4)) | Serious TEAE: Intracranial tumor hemorrhage (Phase 1, 300 mg (N=4)) | Serious TEAE: Liver injury (Phase 1, 300 mg (N=4)) | Serious TEAE: Lung adenocarcinoma (Phase 1, 300 mg (N=4)) | Serious TEAE: Malignant neoplasm progression (Phase 1, 300 mg (N=4)) | Serious TEAE: Multiple organ dysfunction syndrome (Phase 1, 300 mg (N=4)) | Serious TEAE: Nausea (Phase 1, 300 mg (N=4)) | Serious TEAE: Nephrolithiasis (Phase 1, 300 mg (N=4)) | Serious TEAE: Platelet counts decreased (Phase 1, 300 mg (N=4)) | Serious TEAE: Pleural effusion (Phase 1, 300 mg (N=4)) | Serious TEAE: Pneumonia (Phase 1, 300 mg (N=4)) | Serious TEAE: Pneumonitis (Phase 1, 300 mg (N=4)) | Serious TEAE: Prolonged QT interval (Phase 1, 300 mg (N=4)) | Serious TEAE: Pulmonary embolism (Phase 1, 300 mg (N=4)) | Serious TEAE: Pyrexia (Phase 1, 300 mg (N=4)) | Serious TEAE: Rash (Phase 1, 300 mg (N=4)) | Serious TEAE: Rectal hemorrhage (Phase 1, 300 mg (N=4)) | Serious TEAE: Respiratory failure (Phase 1, 300 mg (N=4)) | Serious TEAE: Seizure (Phase 1, 300 mg (N=4)) | Serious TEAE: Septic shock (Phase 1, 300 mg (N=4)) | Serious TEAE: Sudden cardiac arrest (Phase 1, 300 mg (N=4)) | Serious TEAE: Sudden death (Phase 1, 300 mg (N=4)) | Serious TEAE: Upper respiratory tract infection (Phase 1, 300 mg (N=4)) | Serious TEAE: Ventricular tachycardia (Phase 1, 300 mg (N=4)) | Serious TEAE: Vomiting (Phase 1, 300 mg (N=4)) | Serious TEAE: Weight loss (Phase 1, 300 mg (N=4)) | Serious TRAE: ALT increased (Phase 1, 300 mg (N=4)) | Serious TRAE: AST increased (Phase 1, 300 mg (N=4)) | Serious TRAE: Abdominal Pain (Phase 1, 300 mg (N=4)) | Serious TRAE: Abdominal distension (Phase 1, 300 mg (N=4)) | Serious TRAE: Acute cholecystitis (Phase 1, 300 mg (N=4)) | Serious TRAE: Acute pancreatitis (Phase 1, 300 mg (N=4)) | Serious TRAE: Anal abscess (Phase 1, 300 mg (N=4)) | Serious TRAE: Any (Phase 1, 300 mg (N=4)) | Serious TRAE: Aortic intramural hematoma (Phase 1, 300 mg (N=4)) | Serious TRAE: Arrhythmia (Phase 1, 300 mg (N=4)) | Serious TRAE: Blood bilirubin increased (Phase 1, 300 mg (N=4)) | Serious TRAE: Blood creatinine increased (Phase 1, 300 mg (N=4)) | Serious TRAE: COVID-19 (Phase 1, 300 mg (N=4)) | Serious TRAE: Cardiac tamponade (Phase 1, 300 mg (N=4)) | Serious TRAE: Coronary artery atherosclerosis (Phase 1, 300 mg (N=4)) | Serious TRAE: Death (Phase 1, 300 mg (N=4)) | Serious TRAE: Diarrhea (Phase 1, 300 mg (N=4)) | Serious TRAE: Drug eruption (Phase 1, 300 mg (N=4)) | Serious TRAE: Dyspnea (Phase 1, 300 mg (N=4)) | Serious TRAE: Embolism (Phase 1, 300 mg (N=4)) | Serious TRAE: Erythema multiforme (Phase 1, 300 mg (N=4)) | Serious TRAE: Headache (Phase 1, 300 mg (N=4)) | Serious TRAE: Hemoptysis (Phase 1, 300 mg (N=4)) | Serious TRAE: Hydronephrosis (Phase 1, 300 mg (N=4)) | Serious TRAE: Hypertension (Phase 1, 300 mg (N=4)) | Serious TRAE: Hypoalbuminemia (Phase 1, 300 mg (N=4)) | Serious TRAE: Intestinal obstruction (Phase 1, 300 mg (N=4)) | Serious TRAE: Intra-abdominal fluid collection (Phase 1, 300 mg (N=4)) | Serious TRAE: Intracranial tumor hemorrhage (Phase 1, 300 mg (N=4)) | Serious TRAE: Liver injury (Phase 1, 300 mg (N=4)) | Serious TRAE: Lung adenocarcinoma (Phase 1, 300 mg (N=4)) | Serious TRAE: Malignant neoplasm progression (Phase 1, 300 mg (N=4)) | Serious TRAE: Multiple organ dysfunction syndrome (Phase 1, 300 mg (N=4)) | Serious TRAE: Nausea (Phase 1, 300 mg (N=4)) | Serious TRAE: Nephrolithiasis (Phase 1, 300 mg (N=4)) | Serious TRAE: Platelet counts decreased (Phase 1, 300 mg (N=4)) | Serious TRAE: Pleural effusion (Phase 1, 300 mg (N=4)) | Serious TRAE: Pneumonia (Phase 1, 300 mg (N=4)) | Serious TRAE: Pneumonitis (Phase 1, 300 mg (N=4)) | Serious TRAE: Prolonged QT interval (Phase 1, 300 mg (N=4)) | Serious TRAE: Pulmonary embolism (Phase 1, 300 mg (N=4)) | Serious TRAE: Pyrexia (Phase 1, 300 mg (N=4)) | Serious TRAE: Rash (Phase 1, 300 mg (N=4)) | Serious TRAE: Rectal hemorrhage (Phase 1, 300 mg (N=4)) | Serious TRAE: Respiratory failure (Phase 1, 300 mg (N=4)) | Serious TRAE: Seizure (Phase 1, 300 mg (N=4)) | Serious TRAE: Septic shock (Phase 1, 300 mg (N=4)) | Serious TRAE: Sudden cardiac arrest (Phase 1, 300 mg (N=4)) | Serious TRAE: Sudden death (Phase 1, 300 mg (N=4)) | Serious TRAE: Upper respiratory tract infection (Phase 1, 300 mg (N=4)) | Serious TRAE: Ventricular tachycardia (Phase 1, 300 mg (N=4)) | Serious TRAE: Vomiting (Phase 1, 300 mg (N=4)) | Serious TRAE: Weight loss (Phase 1, 300 mg (N=4)) | Serious TEAE: ALT increased (Phase 1, 450 mg (N=79)) | Serious TEAE: AST increased (Phase 1, 450 mg (N=79)) | Serious TEAE: Abdominal Pain (Phase 1, 450 mg (N=79)) | Serious TEAE: Abdominal distension (Phase 1, 450 mg (N=79))
two: patients with dose-limiting toxicities (800 mg (q.d.), grade-3 decreased appetite, grade-3 prolonged QT interval)
36.7%: incidence of ≥ grade-3 TEAEs (450 mg/day)
1 (25.0) No. (%): Serious TEAE: Any (Phase 1, 300 mg (N=4)) | Serious TEAE: Aortic intramural hematoma (Phase 1, 300 mg (N=4))
